A word on the solubility: it is how much of the substance goes into solution per volume. Low readings indicate a poorly soluble substance, high ones a readily soluble substance.

A short description of the data set: Solubility of flibanserin in aqueous media. The class given is physicochemical. An excerpt: In acidic environment compounds such as flibanserin are usually very well water soluble whereas in neutral or basic environment these drugs can be practically insoluble. […] These physicochemical properties of basic compounds make it difficult to develop extended release dosage forms. There is a natural pH gradient from the acidity of the stomach where the pH of physiological fluids are typically around 1-2, through the weakly acidic duodenum to the virtually neutral environment of the small intestine where the pH is in the range of 5-8.

In brackets after ≈: the same amount, converted by molar mass.

Turning to `O=c1[nH]c2ccccc2n1CCN1CCN(c2cccc(C(F)(F)F)c2)CC1` [flibanserin, 1,3-dihydro-1-[2-[4-[3-(trifluoromethyl)phenyl]-1-piperazinyl]ethyl]-2H-benzimidazole-2-one], the solubility runs as follows: (aqueous buffer, in 0.05 M phosphate buffer pH 6.8) 2 µg/mL (≈ 0.00512 mM); (simulated gastric fluid, in 0.1 N HCl) 6200 µg/mL (≈ 15.9 mM).

Values taken from patent US8545886B2, “Extended release tablet formulations of flibanserin and method for manufacturing the same” (Boehringer Ingelheim International GmbH, priority 2006, dated 2013).
